Measurements as given in patent publication EP4729514A1, “BICYCLIC DERIVATIVE PARP INHIBITOR AND USE THEREOF” (Haisco Pharmaceutical Group Co., Ltd., priority 2023, dated 2024).
Read-outs that look alike come from different tables or passages of the source.

What was measured:
PARP-1 = target: T1, PARP-1 (Homo sapiens, UniProt P09874); assay: PARP1 enzyme activity assay (FP method, fluorescent probe); assay type: biochemical
T1 construct: purchased BPS 80501
Experimental: The inhibition of compounds on PARP1/2 enzyme activity was tested using the FP method. The substrate tracer fluorescent probe (from ICE BIOSCIENCE INC.) in the reaction was prepared in a reaction buffer (50 mM Tris (pH 8.0), 10 mM MgCl2, 150 mM NaCl, 0.001% Triox-100). PARP1/2 (BPS, Cat #80501/80502) was added to the reaction buffer, and gently mixed. The final concentrations of PARP1/2 and the fluorescent probe in the reaction mixture were 5/10 nM and 2.5 nM, respectively. Positive reference Olaparib was serially diluted 3-fold, from an initial concentration of 1 µM, to generate 10 concentration points. 0.1 µL of the compound in 100% DMSO was delivered to a 384-well plate (Corning, 4514) by the acoustic liquid conveyor (Echo 655), and the plate was centrifuged at 1000 rpm for 1 minute; 5 µL of PARP enzyme solution was transferred into the 384-well reaction plate, and the plate was centrifuged at 1000 rpm for 1 minute, and incubated at 25°C for 10 min; 5 µL of substrate solution was transferred into the 384-well reaction plate, and the plate was centrifuged at 1000 rpm for 1 minute, and incubated at 25°C for 60 minutes; finally, the mP signal value of FP (ex/em: 485 nm/520 nm) was read using the fluorescence polarisation module of the BMG PHERAstar FSX. Subsequently, the IC50 value was determined by fitting the data to a four-parameter nonlinear regression curve using GraphPad Prism 8 software. The inhibition rate was calculated according to formula 1, where RLUsample represents the readout of the compound well, RLUmax represents the readout of the solvent control well, and RLUmin represents the readout of the control well without the PARP1/2 enzyme. The IC50 value was determined by fitting the data to a four-parameter curve (log(inhibitor) vs. response -- Variable slope) using GraphPad Prism software. Inhibition% = (1−(RLUsample−RLUmin)/(RLUmax−RLUmin)) × 100% [formula] Table 1 PARP-1 enzyme activity

DLD-1 = DLD-1 cell activity assay (CellTiter-Glo, 7 days); assay type: cell-based; details: Homo sapiens, 168 h, 7 days incubation; for inhibition at 10 µM: read-out: Max inh.% 10 µM; for IC50: table does not say whether DLD-1 or DLD-1 BRCA2 KO
Experimental: DLD-1 (150 cells/well/100 µL) (ATCC, CCL-221) and DLD-1 BRCA2 KO (1500 cells/well/100 µL) (from ICE BIOSCIENCE INC.) were inoculated into a 96-well plate (Greiner, 655090) at appropriate cell densities and incubated overnight in a cell incubator at 37°C. The test compound was diluted in the corresponding cell culture medium, and the mixture was added to the well plate and incubated for 7 days. On the fourth day, the medium was replaced with a fresh medium containing the same concentrations of the compounds. The CellTiter-Glo reagent (CTG, Vazyme, DD1101-03) and the culture plate were taken out and returned to room temperature, and then 60 µL of CTG reagent was added to the cells. The plate was then shaken for 2 minutes to ensure complete cell lysis and placed at room temperature for 30 minutes. Luminescence signal values were read using a microplate reader (PHERAstar FSX). The wells containing only culture medium were used as negative controls, and the DMSO-containing wells were used as positive controls. The inhibitory activity percentage of the compounds was normalised using the readings from the negative and positive controls. Calculation formula of inhibition rate: [formula] Table 2 DLD-1 cell activity

A549 PARP2 KO = assay: PARP selectivity experiment (pADPr immunofluorescence after H2O2 stimulation), A549 PARP2 KO cells; assay type: cell-based
Experimental: (§1) A549WT, A549 PARP1 KO and A549 PARP2 KO cell lines were inoculated into a 384-well plate at 2500/40 µL/well, and incubated overnight at 37°C with 5% CO2. On the next day, 40 nL of serially diluted compounds were added, and the cells were incubated at 37°C with 5% CO2 for 1 hour. The cells were stimulated by adding 5 µL of H2O2. A549 WT and A549 PARP2 KO were stimulated with a final concentration of 200 µM for 5 minutes, and A549 PARP1 KO was stimulated with a final concentration of 20 mM for 45 minutes. After the stimulation, the supernatant was discarded, and the cells were fixed with 40 µL of pre-cooled methanol in a refrigerator at 4°C for 20 minutes. The cells were washed twice with PBS, and blocked with 20 µL of blocking buffer for 1 hour. A primary antibody mixture (prepared by diluting the pADPr antibody (10H: sc-56198) 1 : 500 in blocking buffer) was added, and the plate was incubated overnight at 4°C. The cells were washed three times with PBST. A secondary antibody mixture (prepared by diluting the goat anti-mouse IgG (H+L) highly cross-adsorbed secondary antibody (Alexa Fluor™ 488) 1 : 500 in blocking buffer) was added, and the plate was incubated at room temperature for 1 hour. The cells were washed three times with PBST, and 20 µL of DAPI solution (1 : 5000 dilution) was added. The plate was incubated at room temperature for 10 minutes before scanning. […]

A549 PARP1 KO = assay: PARP selectivity experiment (pADPr immunofluorescence after H2O2 stimulation), A549 PARP1 KO cells; assay type: cell-based; details: Homo sapiens, 0.75 h, H2O2 20 mM for 45 minutes
Experimental: as §1

[1] = Pharmacokinetic test in rats; assay type: in vivo, SD rats; details: for Kp at 24 h: brain, 24 h after administration, cell spans the i.v. and i.g. lines, read-out: Brain/Plasma Ratio (24 h); for Kp at 24 h / bioavailability: rat; for pharmacokinetic characteristics in rats: conclusion in words; for AUC(0-t) at 24 h / clearance / Vd: rat plasma; for Vd: read-out: Vdss; for bioavailability: plasma
Experimental: 4.1. Experimental animals: Male SD rats (about 220 g, 6-8 weeks old, 6 rats/compound) purchased from CHENGDU DOSSY EXPERIMENTAL ANIMALS CO., LTD.
4.2 Experimental design: on the day of the experiment, 12 SD rats were randomly grouped according to their body weights. The animals were fasted with water available for 12-14 h one day before the administration, and were fed 4 h after the administration. Table 4. Administration information
Before and after administration, 0.15 ml of blood was taken from the orbit under isoflurane anaesthesia and placed in an EDTAK2 centrifuge tube. The tube was centrifuged at 5000 rpm at 4°C for 10 min, and plasma was collected. The blood collection time points for the intravenous administration group and intragastric administration group were: 0, 5 min, 15 min, 30 min, 1 h, 2 h, 4 h, 6 h, 8 h and 24 h. The brain tissues were collected 24 hours after the administration, rinsed with cold physiological saline to remove the residual blood on the surface, drained out and then homogenised. Before analysis and detection, all samples were stored at -80°C. The samples were quantitatively analysed by LC-MS/MS. Table 5. Pharmacokinetic parameters of test compounds in plasma of rats

[2] = PARP-1 enzyme activity, FP method, read-out: IC50

T1 sequence (P09874 whole entry): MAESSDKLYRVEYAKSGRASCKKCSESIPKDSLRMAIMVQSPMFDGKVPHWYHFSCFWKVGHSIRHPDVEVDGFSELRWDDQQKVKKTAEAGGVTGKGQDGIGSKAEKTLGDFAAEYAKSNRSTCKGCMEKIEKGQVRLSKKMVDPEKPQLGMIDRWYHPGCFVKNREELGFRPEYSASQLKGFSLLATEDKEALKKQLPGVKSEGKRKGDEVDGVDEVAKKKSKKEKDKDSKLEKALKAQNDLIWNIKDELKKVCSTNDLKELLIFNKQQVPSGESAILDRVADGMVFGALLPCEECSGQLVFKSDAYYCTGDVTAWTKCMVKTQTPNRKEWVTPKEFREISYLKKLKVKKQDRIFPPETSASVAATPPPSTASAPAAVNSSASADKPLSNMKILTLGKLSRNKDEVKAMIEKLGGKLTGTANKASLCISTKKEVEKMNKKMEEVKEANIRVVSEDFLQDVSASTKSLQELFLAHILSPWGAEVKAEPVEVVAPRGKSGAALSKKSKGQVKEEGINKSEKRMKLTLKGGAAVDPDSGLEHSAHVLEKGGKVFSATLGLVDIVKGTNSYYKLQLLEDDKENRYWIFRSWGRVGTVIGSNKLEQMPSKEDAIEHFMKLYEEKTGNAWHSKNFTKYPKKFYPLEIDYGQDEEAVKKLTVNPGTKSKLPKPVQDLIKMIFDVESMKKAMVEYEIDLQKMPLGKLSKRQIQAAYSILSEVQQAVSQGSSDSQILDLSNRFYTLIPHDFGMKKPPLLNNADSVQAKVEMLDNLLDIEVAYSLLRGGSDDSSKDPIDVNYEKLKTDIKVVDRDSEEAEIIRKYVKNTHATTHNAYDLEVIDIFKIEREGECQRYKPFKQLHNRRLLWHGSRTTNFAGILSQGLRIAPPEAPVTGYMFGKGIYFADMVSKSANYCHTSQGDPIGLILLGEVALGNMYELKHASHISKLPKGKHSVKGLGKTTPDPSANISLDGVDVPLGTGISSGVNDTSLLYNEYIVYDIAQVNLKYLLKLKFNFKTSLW

For `CCc1nc2ccc(CN3CCN(c4ccc(C(=O)Nc5cn(C)nc5F)nc4F)CC3)c(F)c2[nH]c1=O` [Compound 1], the IC50 (PARP-1) was 2.74 nM, the inhibition at 10 µM (DLD-1) was 94% and the IC50 (DLD-1) was 3.64 nM.

For `Cn1cc(NC(=O)c2ccc(N3CCN(Cc4ccc5nc(C(F)F)c(=O)[nH]c5c4F)CC3)c(F)n2)c(F)n1` [Compound 2], the IC50 (PARP-1) was 10.8 nM, the inhibition at 10 µM (DLD-1) was 93.1% and the IC50 (DLD-1) was 4.67 nM. The IC50 (A549 PARP2 KO; Homo sapiens, 5 min, A549 PARP2 KO cells, H2O2 200 µM for 5 minutes) was 0.63 nM, the “selectivity for PARP1” value (A549 PARP2 KO; conclusion in words, from A549 PARP2 KO versus A549 PARP1 KO) was “good selectivity for PARP1” and the IC50 (A549 PARP1 KO) was over 5000 nM. The Kp at 24 h ([1]; iv) was 1.03, the “pharmacokinetic characteristics in rats” value [1] was “good pharmacokinetic characteristics” and the AUC(0-t) at 24 h ([1]; iv, i.v. (2.5 mg/kg)) was 18700 ± 972 ng·h/mL. It also gave a clearance ([1]; iv, i.v. (2.5 mg/kg)) of 2.22 ± 0.11 mL/min/kg, a Vd ([1]; iv, i.v. (2.5 mg/kg)) of 0.348 ± 0.027 L/kg and a bioavailability ([1]; po, i.g. (10 mg/kg)) of 66.8 ± 15%. It also gave an AUC(0-t) at 24 h ([1]; po, i.g. (10 mg/kg)) of 50000 ± 11500 ng·h/mL.

For `Cn1ncc(NC(=O)c2ccc(N3CCN(Cc4ccc5nc(C(F)F)c(=O)[nH]c5c4F)CC3)c(F)n2)c1F` [Compound 3], the IC50 (PARP-1) was 10.5 nM, the inhibition at 10 µM (DLD-1) was 91.6% and the IC50 (DLD-1) was 4.67 nM.

For `CCc1nc2ccc(CN3CCN(c4ccc(C(=O)Nc5cnn(C)c5F)nc4F)CC3)c(F)c2[nH]c1=O` [Compound 4], the IC50 (PARP-1) was 3.38 nM, the inhibition at 10 µM (DLD-1) was 91.7% and the IC50 (DLD-1) was 3.1 nM.

In the case of `Cn1ncc(C(=O)Nc2ccc(N3CCN(Cc4ccc5nc(C(F)F)c(=O)[nH]c5c4F)CC3)c(F)n2)c1F` [Compound 5], the IC50 (PARP-1; [2]) is reported as 17.1 nM.

In the case of `CCc1nc2ccc(CN3CCN(c4ccc(NC(=O)c5cn(C)nc5F)nc4F)CC3)c(F)c2[nH]c1=O` [Compound 6], the IC50 (PARP-1; [2]) is reported as 10.5 nM.

With `C=C1CC(NC(=O)c2ccc(N3CCN(Cc4ccc5nc(C(F)F)c(=O)[nH]c5c4F)CC3)c(F)n2)C1` [Compound 7] the IC50 (PARP-1; [2]) was 12.5 nM.

In the case of `C=C1CC(NC(=O)c2ccc(O[C@H]3CN(Cc4ccc5nc(CC)c(=O)[nH]c5c4F)[C@@H]3C)c(F)n2)C1` [Compound 8], the IC50 (PARP-1) is reported as 5.42 nM, the inhibition at 10 µM (DLD-1) is reported as 86.7% and the IC50 (DLD-1) is reported as 16.8 nM. For the same molecule, the Kp at 24 h ([1]; iv) was 0.242, the “pharmacokinetic characteristics in rats” value [1] was “good pharmacokinetic characteristics” and the AUC(0-t) at 24 h ([1]; iv, i.v. (2.5 mg/kg)) was 5720 ± 298 ng·h/mL. For the same molecule, the clearance ([1]; iv, i.v. (2.5 mg/kg)) was 4.36 ± 0.74 mL/min/kg, the Vd ([1]; iv, i.v. (2.5 mg/kg)) was 0.855 ± 0.16 L/kg and the bioavailability ([1]; po, i.g. (10 mg/kg)) was 81.9 ± 22%. It also gave an AUC(0-t) at 24 h ([1]; po, i.g. (10 mg/kg)) of 31800 ± 8480 ng·h/mL.

Molecule `C=C1CC(NC(=O)c2ccc(N3CCN(Cc4ccc5nc(C)c(=O)[nH]c5c4F)CC3)c(F)n2)C1` [Compound 9] has an IC50 (PARP-1) of 3.25 nM, an inhibition at 10 µM (DLD-1) of 81.8% and an IC50 (DLD-1) of 7.99 nM.

Molecule `C=C1CC(NC(=O)c2ccc(N3CCN(Cc4ccc5nc(CC)c(=O)[nH]c5c4F)CC3)c(F)n2)C1` [Compound 10] has an IC50 (PARP-1) of 4.55 nM, an inhibition at 10 µM (DLD-1) of 87.6% and an IC50 (DLD-1) of 6.96 nM.

With `CCc1nc2ccc(CN3C[C@H](Oc4ccc(C(=O)NC5CC(=C(F)F)C5)nc4F)[C@H]3C)c(F)c2[nH]c1=O` (stereo partly drawn) [Compound 11] the IC50 (PARP-1; [2]) was 5.63 nM.

Molecule `Cc1nc2ccc(CN3CCN(c4ccc(C(=O)NC5CC(=C(F)F)C5)nc4F)CC3)c(F)c2[nH]c1=O` (stereo not drawn) [Compound 12] has an IC50 (PARP-1; [2]) of 3.14 nM.

In the case of `CCc1nc2ccc(CN3CCN(c4ccc(C(=O)NC5CC(=C(F)F)C5)nc4F)CC3)c(F)c2[nH]c1=O` (stereo not drawn) [Compound 13], the IC50 (PARP-1; [2]) is reported as 6.39 nM.

Molecule `C=C1CC(NC(=O)c2ccc(O[C@H]3CN(Cc4ccc5nc(C)c(=O)[nH]c5c4F)[C@@H]3C)c(F)n2)C1` [Compound 18] has an IC50 (PARP-1; [2]) of 7.94 nM.
